Measurements as given in patent US9937235B2, “Lipidated peptides as anti-obesity agents” (USTAV ORGANICKE CHEMIE A BIOCHEMIE AKADEMIE VED CR, V.V.I, priority 2012, dated 2018).
Where a SMILES comes first, the peptide text is derived from it. Where no end group is shown, it is not given here. [ ]: non-standard residue; d: D form. The star is where a group is joined. Phe(4-NO2) = N[C@@H](Cc1ccc([N+](=O)[O-])cc1)C(=O)O; Stearoyl = CCCCCCCCCCCCCCCCCC(=O)*; Palmitoyl = CCCCCCCCCCCCCCCC(=O)*; Myristoyl = CCCCCCCCCCCCCC(=O)*; Nle = CCCC[C@H](N)C(=O)O

Test system: fasted C57BL/6 mice
Test: Food intake in fasted mice after SC administration
Format: in vivo, mouse
Settings: fasted C57BL/6 mice, 5 mg/kg SC, 45 min
Experimental: Male C57BL/6 mice (An Lab, Prague 4) were bred in the accredited animal facility in the Institute of Organic Chemistry and Biochemistry, Czech Academy of Sciences, Prague, at the Institute of Molecular Genetics, Prague 4, at the temperature of 22±2° C. with access to food and water ad libitum. The day/night cycle was 12/12 hours (light turned on at 6:00 am). Animals were treated according to the Animal Protection Act (Act No. 246/1992). The males were fed standard chow diet St-1 (Mlýn Kocanda, Praha, Czech Republic) which contained 66% saccharides, 25% proteins and 9% lipids with a caloric value of 3.4 kcal/g.
The food was withdrawn 17 hours prior to injection of lipidated peptide and free access to water was maintained. The administration of saline, PrRP or lipidated analogs was performed either by SC injection at doses of 1-10 mg/kg (volume 0.2 ml/mouse), or by ICV using infusion pump (cannulae were inserted into the third brain ventricle 4 days before the experiment following the procedure of Maixnerová et al. (Maixnerová et al., 2011)). The single dose of peptide was 4 nmol/mouse (5 μl/mouse).
Fifteen minutes after the lipidated peptide administration, the mice were given pre-weighed food. The food was then weighed every 30 minutes for 5-10 hours. The administration of every dose was performed at least twice and one group of mice consisted of at least 6 mice. The results were presented as % of food intake as compared with the control group injected with saline.
Statistical evaluation was performed using program Graph-Pad Prism Software (San Diego, Calif., USA), and the one-way ANOVA with a subsequent Dunnettovým post-hoc test. The difference in food intake between mice injected with saline and mice injected with the examined peptide were considered statistically significant at P<0.05.

Row | Molecule | Food intake in mice (5 mg/kg SC) % saline-treated group (45 min)
1 | TPDINPAWYASRGIRPVGRF-NH2 [Analog 51] | 100%
2 | CCCCCCCCCCCCCC(=O)N[C@@H](CO)C(=O)N[C@@H](Cc1c[nH]cn1)C(=O)N[C@@H](CCC(N)=O)C(=O)N[C@@H](CCCNC(=N)N)C(=O)N1CCC[C@H]1C(=O)N[C@@H](C)C(=O)N[C@@H](CC(=O)O)C(=O)N[C@H](C(=O)N[C@@H](Cc1c[nH]cn1)C(=O)N[C@@H](Cc1c[nH]c2ccccc12)C(=O)N[C@@H](Cc1ccc(O)cc1)C(=O)N1CCC[C@H]1C(=O)N[C@@H](CCCNC(=N)N)C(=O)NCC(=O)N[C@@H](CCCC)C(=O)N[C@@H](Cc1ccccc1)C(=O)N1CCC[C@H]1C(=O)N[C@H](C(=O)N[C@H](C(=O)NCC(=O)N[C@@H](CCCNC(=N)N)C(=O)N[C@H](C(=O)N[C@H](C(=O)N[C@@H](C)C(=O)N[C@@H](CCCNC(=N)N)C(=O)N[C@@H](CC(N)=O)C(=O)NCC(=O)N[C@@H](CCC(=O)O)C(=O)N[C@H](C(=O)N[C@@H](CO)C(=O)N[C@@H](CCCNC(=N)N)C(=O)O)C(C)C)[C@@H](C)O)[C@@H](C)CC)[C@@H](C)CC)[C@@H](C)O)[C@@H](C)O [Analog 31] (Myristoyl-SHQRPADTHWYPRG[Nle]FPTIGRITARNGEVSR-OH; C-terminus assumed) | 100%
3 | CCCCCCCCCCCCCCCCCC(=O)N[C@@H](CO)C(=O)N[C@@H](CCCNC(=N)N)C(=O)N[C@@H](C)C(=O)N[C@@H](Cc1c[nH]cn1)C(=O)N[C@@H](CCC(N)=O)C(=O)N[C@@H](Cc1c[nH]cn1)C(=O)N[C@@H](CO)C(=O)N[C@@H](CCCC)C(=O)N[C@@H](CCC(=O)O)C(=O)N[C@H](C(=O)N[C@@H](CCCNC(=N)N)C(=O)N[C@H](C(=O)N1CCC[C@H]1C(=O)N[C@@H](CC(=O)O)C(=O)N[C@H](C(=O)N[C@@H](CC(N)=O)C(=O)N1CCC[C@H]1C(=O)N[C@@H](C)C(=O)N[C@@H](Cc1c[nH]c2ccccc12)C(=O)N[C@@H](Cc1ccc(O)cc1)C(=O)N[C@H](C(=O)NCC(=O)N[C@@H](CCCNC(=N)N)C(=O)NCC(=O)N[C@H](C(=O)N[C@@H](CCCNC(=N)N)C(=O)N1CCC[C@H]1C(=O)N[C@H](C(=O)NCC(=O)N[C@@H](CCCNC(=N)N)C(=O)N[C@@H](Cc1ccccc1)C(N)=O)C(C)C)[C@@H](C)CC)[C@@H](C)O)[C@@H](C)CC)[C@@H](C)O)[C@@H](C)O [Analog 20] (Stearoyl-SRAHQHS[Nle]ETRTPDINPAWYTGRGIRPVGRF-NH2) | 3.5%
4 | CCCCCCCCCCCCCCCC(=O)N[C@@H](CO)C(=O)N[C@@H](CCCNC(=N)N)C(=O)N[C@@H](C)C(=O)N[C@@H](Cc1c[nH]cn1)C(=O)N[C@@H](CCC(N)=O)C(=O)N[C@@H](Cc1c[nH]cn1)C(=O)N[C@@H](CO)C(=O)N[C@@H](CCCC)C(=O)N[C@@H](CCC(=O)O)C(=O)N[C@H](C(=O)N[C@@H](CCCNC(=N)N)C(=O)N[C@H](C(=O)N1CCC[C@H]1C(=O)N[C@@H](CC(=O)O)C(=O)N[C@H](C(=O)N[C@@H](CC(N)=O)C(=O)N1CCC[C@H]1C(=O)N[C@@H](C)C(=O)N[C@@H](Cc1c[nH]c2ccccc12)C(=O)N[C@@H](Cc1ccc(O)cc1)C(=O)N[C@H](C(=O)NCC(=O)N[C@@H](CCCNC(=N)N)C(=O)NCC(=O)N[C@H](C(=O)N[C@@H](CCCNC(=N)N)C(=O)N1CCC[C@H]1C(=O)N[C@H](C(=O)NCC(=O)N[C@@H](CCCNC(=N)N)C(=O)N[C@@H](Cc1ccc(O)cc1)C(N)=O)C(C)C)[C@@H](C)CC)[C@@H](C)O)[C@@H](C)CC)[C@@H](C)O)[C@@H](C)O [Analog 35] (Palmitoyl-SRAHQHS[Nle]ETRTPDINPAWYTGRGIRPVGRY-NH2) | 22%
5 | CCCCCCCCCCCCCC(=O)N[C@@H](CO)C(=O)N[C@@H](CCCNC(=N)N)C(=O)N[C@@H](C)C(=O)N[C@@H](Cc1c[nH]cn1)C(=O)N[C@@H](CCC(N)=O)C(=O)N[C@@H](Cc1c[nH]cn1)C(=O)N[C@@H](CO)C(=O)N[C@@H](CCCC)C(=O)N[C@@H](CCC(=O)O)C(=O)N[C@H](C(=O)N[C@@H](CCCNC(=N)N)C(=O)N[C@H](C(=O)N1CCC[C@H]1C(=O)N[C@@H](CC(=O)O)C(=O)N[C@H](C(=O)N[C@@H](CC(N)=O)C(=O)N1CCC[C@H]1C(=O)N[C@@H](C)C(=O)N[C@@H](Cc1c[nH]c2ccccc12)C(=O)N[C@@H](Cc1ccc(O)cc1)C(=O)N[C@H](C(=O)NCC(=O)N[C@@H](CCCNC(=N)N)C(=O)NCC(=O)N[C@H](C(=O)N[C@@H](CCCNC(=N)N)C(=O)N1CCC[C@H]1C(=O)N[C@H](C(=O)NCC(=O)N[C@@H](CCCNC(=N)N)C(=O)N[C@@H](Cc1ccccc1)C(N)=O)C(C)C)[C@@H](C)CC)[C@@H](C)O)[C@@H](C)CC)[C@@H](C)O)[C@@H](C)O [Analog 18] (Myristoyl-SRAHQHS[Nle]ETRTPDINPAWYTGRGIRPVGRF-NH2) | 3%
6 | CCCCCCCCCCCCCCCC(=O)N[C@@H](CO)C(=O)N[C@@H](CCCNC(=N)N)C(=O)N[C@@H](C)C(=O)N[C@@H](Cc1c[nH]cn1)C(=O)N[C@@H](CCC(N)=O)C(=O)N[C@@H](Cc1c[nH]cn1)C(=O)N[C@@H](CO)C(=O)N[C@@H](CCCC)C(=O)N[C@@H](CCC(=O)O)C(=O)N[C@H](C(=O)N[C@@H](CCCNC(=N)N)C(=O)N[C@H](C(=O)N1CCC[C@H]1C(=O)N[C@@H](CC(=O)O)C(=O)N[C@H](C(=O)N[C@@H](CC(N)=O)C(=O)N1CCC[C@H]1C(=O)N[C@@H](C)C(=O)N[C@@H](Cc1c[nH]c2ccccc12)C(=O)N[C@@H](Cc1ccc(O)cc1)C(=O)N[C@H](C(=O)NCC(=O)N[C@@H](CCCNC(=N)N)C(=O)NCC(=O)N[C@H](C(=O)N[C@@H](CCCNC(=N)N)C(=O)N1CCC[C@H]1C(=O)N[C@H](C(=O)NCC(=O)N[C@@H](CCCNC(=N)N)C(=O)N[C@@H](Cc1ccc([N+](=O)[O-])cc1)C(N)=O)C(C)C)[C@@H](C)CC)[C@@H](C)O)[C@@H](C)CC)[C@@H](C)O)[C@@H](C)O [Analog 29] (Palmitoyl-SRAHQHS[Nle]ETRTPDINPAWYTGRGIRPVGR[Phe(4-NO2)]-NH2) | 0.7%
7 | CCCCCCCCCCCCCCCC(=O)N[C@@H](CO)C(=O)N[C@@H](CCCNC(=N)N)C(=O)N[C@H](C(=O)N[C@@H](Cc1c[nH]cn1)C(=O)N[C@@H](CCCNC(=N)N)C(=O)N[C@@H](Cc1c[nH]cn1)C(=O)N[C@@H](CO)C(=O)N[C@@H](CCSC)C(=O)N[C@@H](CCC(=O)O)C(=O)N[C@H](C(=O)N[C@@H](CCCNC(=N)N)C(=O)N[C@H](C(=O)N1CCC[C@H]1C(=O)N[C@@H](CC(=O)O)C(=O)N[C@H](C(=O)N[C@@H](CC(N)=O)C(=O)N1CCC[C@H]1C(=O)N[C@@H](C)C(=O)N[C@@H](Cc1c[nH]c2ccccc12)C(=O)N[C@@H](Cc1ccc(O)cc1)C(=O)N[C@@H](C)C(=O)N[C@@H](CO)C(=O)N[C@@H](CCCNC(=N)N)C(=O)NCC(=O)N[C@H](C(=O)N[C@@H](CCCNC(=N)N)C(=O)N1CCC[C@H]1C(=O)N[C@H](C(=O)NCC(=O)N[C@@H](CCCNC(=N)N)C(=O)N[C@@H](Cc1ccccc1)C(N)=O)C(C)C)[C@@H](C)CC)[C@@H](C)CC)[C@@H](C)O)[C@@H](C)CC)[C@@H](C)O [Analog 57] | 11%
